# Test results from patent publication US4146719A, “Piperazinyl derivatives of quinoline carboxylic acids” (priority 1977, dated 1979).
# Assays:
# My. smegmatis IFO 3083 = assay: Antibacterial activity in vitro, M.I.C., agar dilution streak method; assay type: cell-based; settings: Gram +
# [1] = test system: Escherichia coli NIHJ JC-2; assay: Preventive effect against ascending kidney infection in mice with Escherichia coli; assay type: in vivo, Escherichia coli; mice (ddY, female); settings: Escherichia coli, NIHJJC2, 48 h, oral, 3 hours after inoculation, challenge 3.2 × 10^7 cells/mouse
# Procedure: Ascending kidney infection was induced in female mice (strain: ddY, 6 weeks old, body weight: 22-26g), by instilling Escherlichia coli NIHJ JC-2 suspended in 0.04 ml of Tryptosoya broth (Nissan) into the urinary tract of mice anesthetized with sodium pentobarbital and by holding for 6 hours the mice in plastic tubes (diameter 25 mm) and clamping the outlet of urinary tract.
# Each of these test material was orally administered 3 hours after inoculation. Mice were sacrificed 48 hours after inoculation. Kidneys were removed aseptically and bisected, and the two halves were pressed and streaked on agar plate containing Desoxycholate medium (Nissan). The therapeutic effect of each compound was evaluated from the absence of growth on the agar surface after 20 hours of incubation at 37° C.
# [2] = test system: Staphylococcus aureus 209P; assay: Antibacterial activity in vitro, M.I.C., agar dilution streak method; assay type: cell-based; settings: Gram +
# Ps. aeruginosa IID 1210 = assay: as above; assay type: cell-based, Pseudomonas aeruginosa; settings: Gram -
# Ps. aeruginosa IID 1130 = assay: as above; assay type: cell-based, Pseudomonas aeruginosa; settings: Gram -
# [3] = test system: Pseudomonas aeruginosa IID 1210; assay: Preventive effect against systemic infection with Pseudomonas aeruginosa in mice; assay type: in vivo, Pseudomonas aeruginosa; mice (ddY, male); settings: Pseudomonas aeruginosa, IID1210, oral, challenge 3.5 × 10^4 cells/mouse
# Procedure: Systemic infection was produced by inoculating male mice (strain: ddY, 6 weeks old, body weight: 28-33g) in intraperitoneally with Pseudomonas aeruginosa IID 1210 suspended in 0.5 ml of Brain heart infusion broth (Eiken) containing 5% mucin. […] Each of these test materials was administered to the mice twice, immediately after and then 6 hours after the inoculation, and the therapeutic effect of each compounds was judged from the survival rate.
# (1) Miller L. C. and M. L. Tainter: Estimation of the ED50 and its error by means of logarithmic-probit graph paper Proc. Soc. Exp. Biol. Med. 57 261-264 (1944)
# (2) Litchfield J. T. and F. Wilcoxon: A simplified method of evaluating dose - effect J. Pharmacol. 92 99-113 (1948)
# Sta. aureus ATCC 14775 = assay: Antibacterial activity in vitro, M.I.C., agar dilution streak method; assay type: cell-based, Staphylococcus aureus; settings: Gram +
# Str. pyogenes S-8 = assay: as above; assay type: cell-based, Streptococcus pyogenes; settings: Gram +
# [4] = test system: Streptococcus pyogenes IID 692; assay: as above; assay type: cell-based; settings: Gram +
# [5] = test system: Klebsiella pneumoniae IFO 3512; assay: as above; assay type: cell-based
# [6] = test system: Mycobacterium phlei IFO 3142; assay: as above; assay type: cell-based; settings: Gram +
# Ps. aeruginosa IFO 12689 = assay: as above; assay type: cell-based, Pseudomonas aeruginosa; settings: Gram -
# Escherichia coli = assay: Concentration ratio in serum to M.I.C. after oral administration of 50 mg/kg in rats; assay type: in vivo, Escherichia coli; rats; settings: rat, in vivo, po, 50 mg/kg
# [7] = test system: Diplococcus pneumoniae IID 552; assay: Antibacterial activity in vitro, M.I.C., agar dilution streak method; assay type: cell-based; settings: Gram +
# E. coli ATCC 10536 = assay: as above; assay type: cell-based, Escherichia coli
# [8] = test system: Haemophilus influenzae IID 986; assay: as above; assay type: cell-based; settings: Gram -
# [9] = test system: gram-positive and gram-negative bacteria including Pseudomonas aeruginosa; assay: Antibacterial spectrum in vitro (summary in words); assay type: cell-based
# Escherichia coli NIHJ = assay: Antibacterial activity in vitro, M.I.C., agar dilution streak method; assay type: cell-based
# [10] = test system: Proteus vulgaris IFO 3167; assay: as above; assay type: cell-based; settings: Gram -
# [11] = test system: Bacillus subtilis PCI 219; assay: as above; assay type: cell-based; settings: Gram +
# Pr. vulgaris XK Denken = assay: as above; assay type: cell-based, Proteus vulgaris; settings: Gram -
# [12] = test system: Escherichia coli NIHJ JC-2; assay: Influence of rat bile on antibacterial activity; assay type: cell-based; settings: bile of rats
# Procedure: Nutrient agar was heated and melted. […] The diameter of the inhibition zone was measured.
# Shigella sonnei IID 969 = assay: Antibacterial activity in vitro, M.I.C., agar dilution streak method; assay type: cell-based; settings: Gram -
# [13] = test system: Pseudomonas aeruginosa V-1; assay: as above; assay type: cell-based; settings: Gram -
# [14] = test system: Corynebacterium pyogenes IID 548; assay: as above; assay type: cell-based; settings: Gram +
# [15] = test system: Salmonella enteritidis IID 604; assay: as above; assay type: cell-based; settings: Gram -
# [16] = test system: Neisseria perflava IID 856; assay: as above; assay type: cell-based
# [17] = Biliary excretion in rats after a single oral administration of 50 mg/kg; settings: rat, in vivo, po, 50 mg/kg
# Str. faecalis IID 682 = assay: Antibacterial activity in vitro, M.I.C., agar dilution streak method; assay type: cell-based; settings: Gram +
compound,measurement,setting,value
CCn1cc(C(=O)O)c(=O)c2cnc(N3CCNCC3)nc21 [Pipemidic acid],MIC,"My. smegmatis IFO 3083; Mycolicibacterium smegmatis, IFO3083, read-out: M.I.C.",50 µg/mL
same,ED50,[1]; read-out: ED50 (95% confidence limit),74 mg/kg
same,ED90,[1]; read-out: ED90,235 mg/kg
same,MIC,"[2]; Staphylococcus aureus, 209P, read-out: M.I.C.",25 µg/mL
same,MIC,"Ps. aeruginosa IID 1210; Pseudomonas aeruginosa, IID1210, read-out: M.I.C.",50 µg/mL
same,MIC,"Ps. aeruginosa IID 1130; Pseudomonas aeruginosa, IID1130, read-out: M.I.C.",25 µg/mL
same,ED50,"[3]; twice (immediately and 6 hours after inoculation), read-out: ED50 (95% confidence limit)",400 mg/kg
same,ED90,"[3]; twice, read-out: ED90",1120 mg/kg
same,MIC,"Sta. aureus ATCC 14775; Staphylococcus aureus, ATCC14775, read-out: M.I.C.",100 µg/mL
same,MIC,"Str. pyogenes S-8; Streptococcus pyogenes, S8, read-out: M.I.C.",> 100 µg/mL
same,MIC,"[4]; Streptococcus pyogenes, IID692, read-out: M.I.C.",> 100 µg/mL
same,MIC,"[5]; Klebsiella pneumoniae, IFO3512",1.56 µg/mL
same,MIC,"[6]; Mycolicibacterium phlei, IFO3142, read-out: M.I.C.",12.5 µg/mL
same,MIC,"Ps. aeruginosa IFO 12689; Pseudomonas aeruginosa, IFO12689, read-out: M.I.C.",25 µg/mL
same,serum concentration / M.I.C. ratio (in words),Escherichia coli,smaller than that of the compound (II)
same,time for which serum levels were maintained,Escherichia coli,≤ 2 h
same,MIC,"[7]; Streptococcus pneumoniae, IID552, read-out: M.I.C.",> 100 µg/mL
same,MIC,"E. coli ATCC 10536; Escherichia coli, ATCC10536",1.56 µg/mL
same,MIC,"[8]; Haemophilus influenzae, IID986, read-out: M.I.C.",3.13 µg/mL
same,antibacterial activity (in words),[9],inactive on many strains of gram-positive bacteria and many Pseudomonas aeruginosa strains
same,MIC,Escherichia coli NIHJ; Escherichia coli,1.56 µg/mL
same,MIC,"[10]; Proteus vulgaris, IFO3167, read-out: M.I.C.",3.13 µg/mL
same,MIC,"[11]; Bacillus subtilis, PCI219, read-out: M.I.C.",6.25 µg/mL
same,MIC,"Pr. vulgaris XK Denken; Proteus vulgaris, read-out: M.I.C.",6.25 µg/mL
same,antibacterial activity in presence of bile (in words),[12],not influenced by bile of rats
same,MIC,"Shigella sonnei IID 969; Shigella sonnei, IID969",1.56 µg/mL
same,MIC,"[13]; Pseudomonas aeruginosa, V1, read-out: M.I.C.",12.5 µg/mL
same,MIC,"[14]; Corynebacterium pyogenes, IID548",100 µg/mL
same,MIC,"[15]; Salmonella enterica, read-out: M.I.C.",12.5 µg/mL
same,MIC,"[16]; Neisseria perflava, IID856",1.56 µg/mL
same,concentration at 3 h,[17],27400 ± 2600 ng/mL
same,concentration at 6 h,[17],22600 ± 1700 ng/mL
same,concentration at 24 h,[17],10200 ± 1200 ng/mL
same,concentration at 27 h,[17],< 2000 ng/mL
same,dose excreted at 3 h,[17],0.6 ± 0.07%
same,dose excreted at 6 h,[17],1.01 ± 0.1%
same,dose excreted at 24 h,[17],1.97 ± 0.09%
same,dose excreted at 27 h,[17],1.97 ± 0.09%
Gentamicin,M.I.C.,My. smegmatis IFO 3083,0.20 µg/mL
same,M.I.C.,[2],0.10 µg/mL
same,M.I.C.,Ps. aeruginosa IID 1210,12.5 µg/mL
same,M.I.C.,Ps. aeruginosa IID 1130,3.13 µg/mL
same,M.I.C.,Str. faecalis IID 682,50 µg/mL
same,M.I.C.,Sta. aureus ATCC 14775,0.10 µg/mL
same,M.I.C.,Str. pyogenes S-8,6.25 µg/mL
same,M.I.C.,[4],6.25 µg/mL
same,M.I.C.,[5]; Gram -,0.20 µg/mL
same,M.I.C.,[6],6.25 µg/mL
same,M.I.C.,Ps. aeruginosa IFO 12689,12.5 µg/mL
same,M.I.C.,[7],12.5 µg/mL
same,M.I.C.,E. coli ATCC 10536; Gram -,0.39 µg/mL
same,M.I.C.,[8],1.56 µg/mL
same,M.I.C.,Escherichia coli NIHJ; Gram -,0.39 µg/mL
same,M.I.C.,[10],0.20 µg/mL
same,M.I.C.,[11],0.10 µg/mL
same,M.I.C.,Pr. vulgaris XK Denken,0.10 µg/mL
same,M.I.C.,Shigella sonnei IID 969,0.78 µg/mL
same,M.I.C.,[13],0.78 µg/mL
same,M.I.C.,[14],0.78 µg/mL
same,M.I.C.,[15],1.56 µg/mL
same,M.I.C.,[16]; Gram -,0.78 µg/mL
